In patent publication US12338256B2, “Aza-tetracyclic oxazepine compounds and uses thereof” (Genentech, Inc., priority 2022, dated 2025):

Assays:
[1] = test system: HPAC (homozygous mutant KRAS G12D human pancreatic cell line); assay: KRAS 3D-Cell Proliferation Assay, HPAC (Example 503); type: cell-based; conditions: Homo sapiens, HPAC, 168 h, HPAC 3D culture, 7 days, CellTiter-Glo 3D; read-out: Prolif HPAC 3D ATP IC50
In short: (§1)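 Cells grown in 3D in ultra-low attachment plates (RPMI-1640 with 10% FBS and 2 mM L-glutamine) received compound dilution series after overnight attachment, at 0.3% DMSO final, for 7 days at 37° C. ATP luminescence (CellTiter-Glo 3D) normalized to DMSO and 1 μM staurosporine; IC50 from 4-parameter Hill fit.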

[2] = test system: H1975 (KRAS wild type human lung adenocarcinoma cell line); assay: KRAS 3D-Cell Proliferation Assay, H1975 (Example 503); type: cell-based; conditions: Homo sapiens, NCI-H1975, 168 h, H1975 3D culture, 7 days, CellTiter-Glo 3D; read-out: Prolif H1975 3D ATP IC50
In short: as §1

Row | Structure (SMILES) | IC50 [1] | IC50 [2]
1 | Cc1c(F)c(N)cc(-c2nc3c4c(nc(OC[C@]56CCCN5C[C@H](F)[C@@H]6F)nc4c2F)N2C[C@H]4CC[C@H](N4)[C@H]2[C@H](C)O3)c1C(F)(F)F (single isomer, unassigned) [143 (isomer 1)] | 4.72 nM | 0.972 µM
2 | C[C@@H]1Oc2nc(-c3cc(N)c(F)c(C4CC4)c3C(F)(F)F)c(F)c3nc(OC[C@@H]4CC[C@H]5COCCN54)nc(c23)N2C[C@H]3CC[C@H](N3)[C@@H]12 [Compound 233, 3-Cyclopropyl-2-fluoro-5-((5S,5aS,6S,9R)-1-fluoro-12-(((6S,8aS)-hexahydro-1H-pyrrolo[2,1-c][1,4]oxazin-6-yl)methoxy)-5-methyl-5a,6,7,8,9,10-hexahydro-5H-4-oxa-3,10a,11,13,14-pentaaza-6,9-methanonaphtho[1,8-ab]heptalen-2-yl)-4-(trifluoromethyl)aniline] | 2000 nM | 5.4 µM
3 | Cc1c(F)c(N)cc(-c2nc3c4c(nc(OCC5(CN6CC(F)C6)CC5)nc4c2F)N2C[C@H]4CC[C@H](N4)[C@H]2[C@H](C)O3)c1C(F)(F)F [Compound 173, 2-Fluoro-5-((5S,5aS,6S,9R)-1-fluoro-12-((1-((3-fluoroazetidin-1-yl)methyl)cyclopropyl)methoxy)-5-methyl-5a,6,7,8,9,10-hexahydro-5H-4-oxa-3,10a,11,13,14-pentaaza-6,9-methanonaphtho[1,8-ab]heptalene-2-yl)-3-methyl-4-(trifluoromethyl)aniline] | 1.33 nM | 0.917 µM
4 | Cc1c(F)c(N)cc(-c2nc3c4c(nc(OCC5(CN6CC6(C)C)CC5)nc4c2F)N2C[C@H]4CC[C@H](N4)[C@H]2[C@H](C)O3)c1C(F)(F)F (stereo partly drawn) [Compound 259, 5-((5S,5aS,6S,9R)-12-((1-((2,2-Dimethylaziridin-1-yl)methyl)cyclopropyl)methoxy)-1-fluoro-5-methyl-5a,6,7,8,9,10-hexahydro-5H-4-oxa-3,10a,11,13,14-pentaaza-6,9-methanonaphtho[1,8-ab]heptalen-2-yl)-2-fluoro-3-methyl-4-(trifluoromethyl)aniline] | 12.3 nM | 1.97 µM
5 | Cc1c(F)c(N)cc(-c2nc3c4c(nc(OCC5CC6COCCN65)nc4c2F)N2C[C@H]4CC[C@H](N4)[C@H]2[C@H](C)O3)c1C(F)(F)F (mixture of isomers) [159 (mixture), 5-((5S,5aS,6S,9R)-12-((4-Oxa-1-azabicyclo[4.2.0]octan-8-yl)methoxy)-1-fluoro-5-methyl-5a,6,7,8,9,10-hexahydro-5H-4-oxa-3,10a,11,13,14-pentaaza-6,9-methanonaphtho[1,8-ab]heptalen-2-yl)-2-fluoro-3-methyl-4-(trifluoromethyl)aniline] | 17.9 nM | 3.74 µM
6 | Cc1c(F)c(N)cc(-c2nc3c4c(nc(OC[C@@]5(CCF)CCCN5C)nc4c2F)N2C[C@H]4CC[C@H](N4)[C@H]2[C@H](C)O3)c1C(F)(F)F (single isomer, unassigned) [127 (isomer 1)] | 50.1 nM | 6.08 µM
7 | Cc1c(F)c(N)cc(-c2nc3c4c(nc(OC[C@]56C[C@H](F)CN5C[C@H](F)C6)nc4c2F)N2C[C@H]4CC[C@H](N4)[C@H]2[C@H](C)O3)c1C(F)(F)F [Compound 141, 5-((5S,5aS,6S,9R)-12-(((2R,6S,7ar)-2,6-Difluorotetrahydro-1H-pyrrolizin-7a(5H)-yl)methoxy)-1-fluoro-5-methyl-5a,6,7,8,9,10-hexahydro-5H-4-oxa-3,10a,11,13,14-pentaaza-6,9-methanonaphtho[1,8-ab]heptalen-2-yl)-2-fluoro-3-methyl-4-(trifluoromethyl)aniline] | 6.92 nM | 6.24 µM
8 | Cc1c(F)c(N)cc(-c2nc3c4c(nc(OC[C@@]56CCCN5CCN(C)C6=O)nc4c2F)N2C[C@H]4CC[C@H](N4)[C@H]2[C@H](C)O3)c1C(F)(F)F (single isomer, unassigned) [137 (isomer 1)] | 127 nM | 20 µM
9 | Cc1c(F)c(N)cc(-c2nc3c4c(nc(OCC5(CC(F)F)CCCN5C)nc4c2F)N2CC4CCC(N4)C2C(C)O3)c1C(F)(F)F (single isomer, unassigned) [150 (isomer 2)] | 23.9 nM | 2.85 µM
